What all share (type): in vivo
Assay [1] relates to mice with hypertensive heart disease induced by angiotensin II (AngII). In words: AngII-induced hypertensive heart disease mouse model: serum aldosterone (ALD) (ELISA). On the procedure: (§1) After male C57BL/6 mice were acclimated to the environment, they were randomly divided into 10 groups, namely the blank control group, the AngII model group, the AngII+telmisartan 10 mg/kg positive control group, the AngII+spironolactone 20 mg/kg positive control group, the AngII+Formula I (0.1, 0.5, 2 mg/kg) groups, and the AngII+Formula II (0.1, 0.5, 2 mg/kg) groups. The mice in the drug administration groups were intragastrically administered the corresponding doses of Formula I and Formula II compounds once a day at the same time. The mice in the positive control groups were intragastrically administered the corresponding doses of telmisartan and spironolactone once a day. The mice in the blank control group and the model group were given the same amount of solvent (0.5% CMC-Na solution). The administration volume was 10 mL/kg, and the administration was continuous for 14 days. From the 1st to the 13th day of drug administration, AngII modeling was carried out. The mice in the blank control group were subcutaneously injected with normal saline, and the mice in the other groups were subcutaneously injected with 1.44 mg/kg of AngII (modeling was carried out 2 h after drug administration), for a total of 13 times. Detection of serum aldosterone (ALD) level: After the experiment, the animals were sacrificed by enucleation to obtain blood. The blood was left to stand at room temperature for 2 hours, and then centrifuged at 3500 rpm for 20 minutes to separate the serum. The content of serum ALD was determined according to the instructions of the ELISA kit.

For assay [2] the test system is unchanged. More on the design: unit not given here. The protocol: After male C57BL/6 mice were acclimated to the environment, they were randomly divided into 10 groups, namely the blank control group, the AngII model group, the AngII+telmisartan 10 mg/kg positive control group, the AngII+spironolactone 20 mg/kg positive control group, the AngII+Formula I (0.1, 0.5, 2 mg/kg) groups, and the AngII+Formula II (0.1, 0.5, 2 mg/kg) groups. The mice in the drug administration groups were intragastrically administered the corresponding doses of Formula I and Formula II compounds once a day at the same time. The mice in the positive control groups were intragastrically administered the corresponding doses of telmisartan and spironolactone once a day. The mice in the blank control group and the model group were given the same amount of solvent (0.5% CMC-Na solution). The administration volume was 10 mL/kg, and the administration was continuous for 14 days. From the 1st to the 13th day of drug administration, AngII modeling was carried out. The mice in the blank control group were subcutaneously injected with normal saline, and the mice in the other groups were subcutaneously injected with 1.44 mg/kg of AngII (modeling was carried out 2 h after drug administration), for a total of 13 times. […] Three mice were randomly selected from each group. The mice were placed in a fixator to expose the tail. The fixator was placed on a heating pad to maintain the normal body temperature of the mice. The root of the tail was passed through a pressurized tail cuff and fixed. Inflation and pressurization were started, and a measuring instrument was used to measure the systolic blood pressure (SBP). The blood pressure index of each animal was continuously measured 5 times, and the average value was taken.

Assay [3] has the same test system. Kind of assay: AngII-induced hypertensive heart disease mouse model: serum BNP (ELISA). The protocol:
as §1, with “myocardial hypertrophy/heart failure biomarkers:” for “serum aldosterone (ALD) level:”, “BNP” for “ALD”

The mark [4] stands for this setting: 0.1 mg/kg intragastric once a day 14 days.
[5] abbreviates: 0.5 mg/kg intragastric once a day 14 days.
The mark [6] stands for this setting: 2 mg/kg intragastric once a day 14 days.
Where [7] appears, read: 0 d (before administration), 0.1 mg/kg group.
[8] abbreviates: 0 d (before administration), 0.5 mg/kg group.
[9] abbreviates: 0 d (before administration), 2 mg/kg group.
[10] abbreviates: 7 d, 0.1 mg/kg intragastric once a day, AngII 1.44 mg/kg s.c.
The mark [11] stands for this setting: 7 d, 0.5 mg/kg intragastric once a day, AngII 1.44 mg/kg s.c.
Where [12] appears, read: 7 d, 2 mg/kg intragastric once a day, AngII 1.44 mg/kg s.c.
[13] abbreviates: 14 d, 0.1 mg/kg intragastric once a day, AngII 1.44 mg/kg s.c.
Where [14] appears, read: 14 d, 0.5 mg/kg intragastric once a day, AngII 1.44 mg/kg s.c.
The mark [15] stands for this setting: 14 d, 2 mg/kg intragastric once a day, AngII 1.44 mg/kg s.c.
[16] abbreviates: 20 mg/kg intragastric once a day 14 days.
Where [17] appears, read: 10 mg/kg intragastric once a day 14 days.

Where two headings read alike, the source gives them in different places.

These results are taken from patent US20260285849A1, “METHYLOPHIOPOGONONE A DERIVATIVE, AND PREPARATION AND USE THEREOF” (INSTITUTE OF MATERIA MEDICA, CHINESE ACADEMY OF MEDICAL …, priority 2022, published 2026).

Turning to `Cc1c(O)cc(O)c2c(=O)c(Cc3ccc4c(c3)OCO4)coc12` [Formula II, 3-(benzo[d][1,3]dioxol-5-ylmethyl)-5,7-dihydroxy-8-methyl-4H-chromen-4-one], the ALD in assay [1] (setting [4]) came out at 186.44 ± 21.59 pg/mL; in assay [1] (setting [5]), 177.28 ± 21.57 pg/mL; in assay [1] (setting [6]) it was 185.89 ± 12.61 pg/mL. Besides, the SBP was found to be 100.30 ± 7.37 in assay [2] (setting [7]); 102.43 ± 8.41 in assay [2] (setting [8]); 101.27 ± 12.13 in assay [2] (setting [9]); 105.73 ± 6.00 in assay [2] (setting [10]); 106.07 ± 1.22 in assay [2] (setting [11]); 110.93 ± 5.78 in assay [2] (setting [12]). In addition, the SBP in assay [2] (setting [13]) stood at 110.13 ± 3.51; in assay [2] (setting [14]), 113.93 ± 3.51; in assay [2] (setting [15]), 108.27 ± 7.29. Further, the figures for the BNP in assay [3] (setting [4]), in assay [3] (setting [5]) and in assay [3] (setting [6]) were 103.21 ± 16.09 pg/mL, 101.08 ± 9.09 pg/mL and 91.67 ± 15.39 pg/mL, respectively.

On to `O=c1c(Cc2ccc3c(c2)OCO3)coc2cc(O)cc(O)c12` [Formula I], for which the ALD in assay [1] (setting [4]) turned out to be 206.80 ± 16.10 pg/mL; in assay [1] (setting [5]), 192.69 ± 14.38 pg/mL; in assay [1] (setting [6]) it was 199.41 ± 31.27 pg/mL. Besides, the SBP in assay [2] (setting [7]) turned out to be 102.13 ± 4.30; in assay [2] (setting [8]) it was 109.70 ± 5.67; in assay [2] (setting [9]), 104.93 ± 9.21; in assay [2] (setting [10]), 121.33 ± 3.19; in assay [2] (setting [11]) it was 109.80 ± 4.50; in assay [2] (setting [12]) it was 107.73 ± 6.53. In addition, the results for the SBP in assay [2] (setting [13]), in assay [2] (setting [14]) and in assay [2] (setting [15]) were 107.60 ± 9.81, 105.13 ± 7.10 and 109.20 ± 5.19, respectively. The figures for the BNP in assay [3] (setting [4]), in assay [3] (setting [5]) and in assay [3] (setting [6]) were 112.93 ± 17.57 pg/mL, 117.59 ± 13.78 pg/mL and 102.97 ± 5.56 pg/mL, respectively.

Turning to `CC(=O)S[C@@H]1CC2=CC(=O)CC[C@]2(C)[C@H]2CC[C@@]3(C)[C@@H](CC[C@@]34CCC(=O)O4)[C@H]12` [Spironolactone, reference compound], the ALD in assay [1] (setting [16]) was 209.03 ± 25.11 pg/mL. The SBP in assay [2] (0 d (before administration), 20 mg/kg group) was determined as 106.13 ± 0.81; in assay [2] (7 d, 20 mg/kg intragastric once a day, AngII 1.44 mg/kg s.c.), 109.73 ± 6.81; in assay [2] (14 d, 20 mg/kg intragastric once a day, AngII 1.44 mg/kg s.c.), 109.70 ± 4.20. This compound also showed a BNP in assay [3] (setting [16]) of 129.92 ± 15.60 pg/mL.

Consider `CCCc1nc2c(C)cc(-c3nc4ccccc4n3C)cc2n1Cc1ccc(-c2ccccc2C(=O)O)cc1` [Telmisartan, reference compound], for which, in assay [1] (setting [17]), the ALD is reported as 162.74 ± 7.38 pg/mL. Moreover, the SBP is listed as 104.13 ± 3.56 in assay [2] (0 d (before administration), 10 mg/kg group); 91.20 ± 6.35^###& in assay [2] (7 d, 10 mg/kg intragastric once a day, AngII 1.44 mg/kg s.c.); 100.47 ± 7.68 in assay [2] (14 d, 10 mg/kg intragastric once a day, AngII 1.44 mg/kg s.c.). Also, the BNP in assay [3] (setting [17]) worked out at 96.84 ± 7.34 pg/mL.
